The numbers were not newly measured in patent publication US11724007B2, “Operating room coating applicator and method” (Ethicon, Inc., priority 2018, dated 2023), which cites them from elsewhere.

In this data set the test system is S. aureus. As to conditions: measured in a suitable growth medium; described by Bhargava, H. et al, American Journal of Infection Control, June 1996.

For `Oc1cc(Cl)ccc1Oc1ccc(Cl)cc1Cl` [triclosan, 2,4,4′-trichloro-2′-hydroxydiphenyl ether], the “minimum inhibitory concentration (MIC) against S. aureus” value is on record as 0.01 ppm.
